Measured values published in patent US20050238642A1, “Modified bouganin proteins, cytotoxins and methods and uses thereof” (priority 2004, published 2005).

B1: VB6-845: cytotoxin: Fab version of an anti-Ep-CAM scFv antibody linked to Bou156 at the C-terminus of the CH domain via a furin linker (protein)
chain 1: EVQLVQSGPGLVQPGGSVRISCAASGYTFTNYGMNWVKQAPGKGLEWMGWINTYTGESTYADSFKGRFTFSLDTSASAAYLQINSLRAEDTAVYYCARFAIKGDYWGQGTLLTVSSASTKGPSVFPLAPSSKSTSGGTAALGCLVKDYFPEPVTVSWNSGALTSGVHTFPAVLQSSGLYSLSSVVTVPSSSLGTQTYICNVNHKPSNTKVDKKVEPKSCTRHRQPRGWEQLYNTVSFNLGEAYEYPTFIQDLRNELAKGTPVCQLPVTLQTIADDKRFVLVDITTTSKKTVKVAIDVTDVYVVGYQDKWDGKDRAVFLDKVPTVATSKLFPGVTNRVTLTFDGSYQKLVNAAKADRKALELGVNKLEFSIEAIHGKTINGQEAAKFFLIVIQMVSEAARFKYIETEVVDRGLYGSFKPNFKVLNLENNWGDISDAIHKSSPQCTTINPALQLISPSNDPWVVNKVSQISPDMGILKFKSSK
chain 2: HHHHHHDIQMTQSPSSLSASVGDRVTITCRSTKSLLHSNGITYLYWYQQKPGKAPKLLIYQMSNLASGVPSRFSSSGSGTDFTLTISSLQPEDFATYYCAQNLEIPRTFGQGTKVELKRTVAAPSVFIFPPSDEQLKSGTASVVCLLNNFYPREAKVQWKVDNALQSGNSQESVTEQDSKDSTYSLSSTLTLSKADYEKHKVYACEVTHQGLSSPVTKSFNRGEC

Columns and labels:
A-375 = test: MTS cytotoxicity assay; type: cell-based; settings: Ep-CAM-negative A-375, MTS, 5 days
Method: (§1) The MTS assay was preformed using standard techniques known in the art. More particularly, 50 microlitres of cells (2×10^4 cells/ml) were seeded per well and plates were incubated at 37° C. under 5% CO2 for 2 hr. Then 50 microlitres of spiked drug (i.e. construct to be tested or control) was added to the culture medium at increasing concentrations. Culture medium, with or without cells, was used as positive and negative controls, respectively. The plates were left at 37° C. under 5% CO2 for 5 days. At day 5, the inhibition of cell proliferation was evaluated by adding 20 microlitres of MTS reagent (Promega, Cat# G5430). The plates were further incubated at 37° C. under 5% CO2 for 2 hr and ODs were read at 490 nm using the plate reader spetrophotometer. Background values were subtracted from the sample values obtained for each concentration and the results were expressed as a percent of viable cells. The IC50 values for each drug were calculated for each cell line.

DAUDI = test: MTS cytotoxicity assay; type: cell-based; settings: Ep-CAM-negative DAUDI, 5 days
Method: as §1

HMEC = test: MTS cytotoxicity assay; type: cell-based, human; settings: Ep-CAM-negative HMEC, 5 days
Method: The tumour cell lines used in this study were purchase from ATCC and were propagated following ATCC's recommendations except for the cell lines C-41, TOV-112D which were grown in RPMI 1640 or DMEM supplemented with 10% FCS, respectively. Tumor cells were harvested at 60-70% confluence with viability over 90%. The human normal mammary epithelial cells (HMEC) were purchased from CAMBREX and maintained in specified media according to the procedure provided by CAMBREX. The cells were harvested at 70% confluence with viability over 90%.
as §1

NIH:OVCAR-3 = test: MTS cytotoxicity assay; type: cell-based; settings: Ep-CAM-positive NIH:OVCAR-3, MTS, 5 days
Method: The MTS assay used to measure potency was conducted using standard technique known in the art, and as more fully described below in Example 8. […] In the case of VB6-845-CL-de-bouganin, the potency was measured at 1 to 2 nM for CAL 27 and 0.6 to 0.7 nM versus NIH:OVCAR-3.
as §1

[1] = tested on: PBMCs (peripheral blood mononuclear cells) from naive donors; test: Naive human T-cell proliferation assay (3H-thymidine incorporation, stimulation index); type: cell-based; settings: for presence of T cell epitope: compilation of 20 donors, 1 μM and 5 μM; for responsive donors: of 20 donor PBMC samples
Method: Accordingly, in the present studies, 89 synthetic 15-mer peptides (as listed in Table 1) were used in T-cell proliferation assays with PBMCs (peripheral blood mononuclear cells) from naive donors (i.e. no known sensitization to bouganin). 20 donor PBMC samples were selected to achieve an optimal coverage of MHC class II allotypes. PBMCs were stimulated with individual peptides in triplicate cultures for 7 days before proliferation was assessed by ^3H-thymidine incorporation. All peptides were diluted at two different concentrations: 1 μM and 5 μM. The stimulation indices (SI) were calculated as the amount of ^3H incorporated into the cells, divided by the amount of ^3H incorporated in mock-stimulated controls.
The peptides were used in T-cell proliferation assays with PBMCs (peripheral blood mononuclear cells) from naive donors (i.e. no known sensitization to bouganin). 20 donor PBMC were selected to get an optimal coverage of MHC class II allotypes. The allotypic coverage is in excess of 85%.
PBMCs were stimulated with individual peptides in triplicate cultures for 7 days before proliferation was assessed by ^3H-thymidine (^3H-Thy) incorporation. All peptides were tested at two different concentrations (1 μM and 5 μM). Stimulation indices (S.I.) were calculated as the amount of ^3H incorporated, divided by the amount of ^3H incorporated in mock-stimulated control cells.
Buffy coats from human blood stored for less than 12 hours were obtained from the National Blood Service (Addenbrooks Hospital, Cambridge, UK). Ficoll-paque was obtained from Amersham Pharmacia Biotech (Amersham, UK). Serum free AIM V media for the culture of primary human lymphocytes and containing L-glutamine, 50 μg/ml streptomycin, 10 μg/ml gentomycin and 0.1% human serum albumin was from Gibco-BRL (Paisley, UK). Synthetic peptides were obtained from Eurosequence (Groningen, The Netherlands) and Babraham Technix (Cambridge, UK).
Erythrocytes and leukocytes were separated from plasma and platelets by gentle centrifugation of buffy coats. The top phase (containing plasma and platelets) was removed and discarded. Erythrocytes and leukocytes were diluted 1:1 in phosphate buffered saline (PBS) before layering onto 15 ml ficoll-paque (Amersham Pharmacia, Amersham UK). Centrifugation was done according to the manufacturers recommended conditions and PBMCs were harvested from the serum+PBS/ficoll paque interface. PBMCs were mixed with PBS (1:1) and collected by centrifugation. The supernatant was removed and discarded and the PBMC pellet resuspended in 50ml PBS. Cells were again pelleted by centrifugation and the PBS supernatant discarded. Cells were resuspended using 50 ml AIM V media and at this point counted and viability assessed using trypan blue dye exclusion. Cells were again collected by centrifugation and the supernatant discarded. Cells were resuspended for cryogenic storage at a density of 3×10^7 per ml. The storage medium was 90% (v/v) heat inactivated AB human serum (Sigma, Poole, UK) and 10% (v/v) DMSO (Sigma, Poole, UK). Cells were transferred to a regulated freezing container (Sigma) and placed at −70° C. overnight. When required for use, cells were thawed rapidly in a water bath at 37° C. before transferring to 10ml pre-warmed AIM V medium.
PBMC were stimulated with protein and peptide antigens in a 96 well flat bottom plate at a density of 2×10^5 PBMC per well. PBMC were incubated for 7 days at 37° C. before pulsing with ^3H-Thy (Amersham-Pharmacia, Amersham, UK). […] C-32=sequence […] from Flu haemagglutinin residues 307-319 (SEQ ID NO:127). C-49=sequence […] from Chlamydia HSP 60 (SEQ ID NO:128).
Peptides were dissolved in DMSO to a final concentration of 10 mM, these stock solutions were then diluted 1/500 in AIM V media (final concentration 20 μM). Peptides were added to a flat bottom 96 well plate to give a final concentration of 1 and 5 μM in 100 μl. […]

Molecule | IC50 (A-375) [nM] | IC50 (DAUDI) [nM] | IC50 (HMEC) [nM] | IC50 (A-375; Homo sapiens, 120 h) [nM] | IC50 (DAUDI; Homo sapiens, 120 h) [nM] | IC50 (HMEC; Homo sapiens, 120 h) [nM] | IC50 (NIH:OVCAR-3; Homo sapiens, 120 h) [nM] | other results
Cc1c(N)nc([C@H](CC(N)=O)NC[C@H](N)C(N)=O)nc1C(=O)N[C@H](C(=O)N[C@H](C)[C@@H](O)[C@H](C)C(=O)N[C@H](C(=O)NCCc1nc(-c2nc(C(=O)NCCCNCCCCN)cs2)cs1)[C@@H](C)O)[C@@H](O[C@@H]1O[C@@H](CO)[C@@H](O)[C@H](O)[C@@H]1O[C@@H]1O[C@H](CO)[C@@H](O)[C@H](OC(N)=O)[C@@H]1O)c1cnc[nH]1 [Bleomycin A5] | 290 | 130 | 1000 | – | – | – | – | IC50 (NIH:OVCAR-3): 150 nM
N.N.O=C([O-])C1(C(=O)[O-])CCC1.[Pt+2] [Carboplatin] | > 1000 | > 1000 | > 1000 | – | – | – | – | IC50 (NIH:OVCAR-3): > 1000 nM
O=C(O)CCCc1ccc(N(CCCl)CCCl)cc1 [Chlorambucil] | – | – | – | > 1000 | > 1000 | > 1000 | > 1000 | –
N.N.[Cl][Pt][Cl] [Cisplatin] | > 1000 | > 1000 | > 1000 | – | – | – | – | IC50 (NIH:OVCAR-3): > 1000 nM
O=P1(N(CCCl)CCCl)NCCCO1 (centres unmarked) [Cyclophosphamide] | – | – | – | > 1000 | > 1000 | > 1000 | > 1000 | –
COc1cccc2c1C(=O)c1c(O)c3c(c(O)c1C2=O)C[C@@](O)(C(=O)CO)C[C@@H]3O[C@H]1C[C@H](N)[C@H](O)[C@H](C)O1 [Doxorubicin] | – | – | – | 2.8 | – | 16 | 3 | –
COc1cc([C@@H]2c3cc4c(cc3[C@@H](O[C@@H]3O[C@@H]5CO[C@@H](C)O[C@H]5[C@H](O)[C@H]3O)[C@H]3COC(=O)[C@H]23)OCO4)cc(OC)c1O [Etoposide] | – | – | – | 280 | 1.7 | 600 | 210 | –
O=c1[nH]cc(F)c(=O)[nH]1 [Fluorouracil] | – | – | – | > 1000 | > 1000 | > 1000 | > 1000 | –
CCc1c2c(nc3ccc(OC(=O)N4CCC(N5CCCCC5)CC4)cc13)-c1cc3c(c(=O)n1C2)COC(=O)[C@]3(O)CC [Irinotecan] | – | – | – | 900 | 190 | 1000 | 180 | –
CN(Cc1cnc2nc(N)nc(N)c2n1)c1ccc(C(=O)N[C@@H](CCC(=O)O)C(=O)O)cc1 [Methotrexate] | – | – | – | 6 | 3.6 | 41 | > 1000 | –
CO[C@@]12[C@H](COC(N)=O)C3=C(C(=O)C(C)=C(N)C3=O)N1C[C@@H]1N[C@@H]12 [Mitomycin C] | 14 | 2.8 | 50 | – | – | – | – | IC50 (NIH:OVCAR-3): 28 nM
CC[C@@]1(O)C(=O)OCc2c1cc1n(c2=O)Cc2cc3c(CN(C)C)c(O)ccc3nc2-1 [Topotecan] | – | – | – | 1.5 | 0.009 | 4.1 | 0.071 | –
Bleomycin Sulfate | 170 | 22 | 600 | – | – | – | – | IC50 (NIH:OVCAR-3): 30 nM
EIAKFFLIVIQMVSE [peptide 51, bouganin 15-mer peptide, first amino acid 151] | – | – | – | – | – | – | – | S.I. (stimulation index) ([1]; donor 14): > 1.9
IVEDLDGDELEILEP [peptide 88, 15-mer peptide of the unprocessed form of bouganin, first amino acid 261] | – | – | – | – | – | – | – | presence of T cell epitope [1]: T cell epitopes
LGVYKLEFSIEAIHG [peptide 44, bouganin 15-mer peptide, first amino acid 130] | – | – | – | – | – | – | – | presence of T cell epitope [1]: T cell epitopes; S.I. (stimulation index) ([1]; donor 4): 3.5; S.I. (stimulation index) ([1]; donor 11): 2.3; responsive donors [1]: two
NGQEIAKFFLIVIQM [peptide 50, bouganin 15-mer peptide, first amino acid 148] | – | – | – | – | – | – | – | presence of T cell epitope [1]: T cell epitopes; S.I. (stimulation index) ([1]; donor 4): 2.9; S.I. (stimulation index) ([1]; donor 14): 2.0; responsive donors [1]: 2
YKLEFSIEAIHGKTI [compound 45, bouganin 15-mer peptide, first amino acid 133] | – | – | – | – | – | – | – | T cell proliferation (in words) ([1]; compared with peptide 44): lower level T cell proliferation
B1 | > 1000 | > 1000 | 220 | – | – | – | – | –
